Among the test systems are RXF 393; SK-MEL-5; SK-MEL-28; UACC-62; MDA-MB-435; A498; SW-620; Malme-3M; MDA-N; HOP-62; HT-29; ACHN; OVCAR-4; OVCAR-5; HCC 2998; NCI-H226; K562; SR; MDA-MB-231; RPMI-8226.
Holding throughout (assay): NCI-60 cell line screen, 48 h

Several values for one entry are separate records, joined by “and”; a condition that tells them apart may be missing. Identical values can stand only once.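 Test compounds were applied to cells in 96-well plates for 48 hours at 5 doses. GI50: concentration for 50% inhibition of growth.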 Activity calls are given as the source filed them. Cut-off read from the data, not from the text of the source: active = GI50 up to about 1.1 µM and inactive = higher.

As for `NCCNCC1CCNCC1`, the GI50 in the assay with RXF 393, with SK-MEL-5, in the assay with SK-MEL-28, in the assay on UACC-62, in the assay on MDA-MB-435 and with A498 was > 100 µM (inactive) throughout. In addition, the GI50 in the assay on SW-620, in the assay with Malme-3M, in the assay on MDA-N, with HOP-62, with HT-29 and in the assay with ACHN was > 100 µM (inactive) throughout. Also, the GI50 in the assay with OVCAR-4, in the assay on OVCAR-5, with HCC 2998, in the assay on NCI-H226, with K562 and in the assay with SR was > 100 µM (inactive) in each case. Further, the GI50 in the assay with MDA-MB-231 and in the assay with RPMI-8226 was > 100 µM (inactive) each time.

In the case of `COc1ccc(C2C(C)C(=O)C(C)C(c3ccc(OC)cc3)N2N=O)cc1` (stereo not given), the GI50 in the assay with RXF 393 was 40.3 µM (inactive); in the assay with SK-MEL-5, > 575 µM (inactive); in the assay with SK-MEL-28, > 640 µM (inactive); with UACC-62, > 506 µM (inactive); in the assay with MDA-MB-435, 166 µM (inactive); in the assay on A498, 203 µM (inactive). For the same molecule, the GI50 is > 1000 µM (inactive) in the assay on SW-620; > 537 µM (inactive) in the assay on Malme-3M; 163 µM (inactive) with MDA-N; 87.1 µM (inactive) in the assay on HOP-62; > 738 µM (inactive) in the assay on HT-29; 175 µM (inactive) in the assay with ACHN. The GI50 with OVCAR-4 is > 479 µM (inactive); in the assay on OVCAR-5, 393 µM (inactive); in the assay with HCC 2998, > 750 µM (inactive); with NCI-H226, 207 µM (inactive); in the assay on K562, > 1000 µM (inactive); with SR, > 685 µM (inactive). The results for the GI50 in the assay on MDA-MB-231 and with RPMI-8226 were 27.2 µM (inactive) and > 1000 µM (inactive), respectively.

Consider `CC(C)C[C@H]1[C@@H](OCc2ccccc2)COS(=O)(=O)N1[C@H](C)c1ccccc1`, for which the GI50 in the assay on RXF 393 was 29.1 µM (inactive); in the assay on SK-MEL-5, 5.55 µM (inactive); with SK-MEL-28, > 100 µM (inactive); in the assay on UACC-62, > 100 µM (inactive); with MDA-MB-435 it was 49.7 µM (inactive); in the assay on A498, > 100 µM (inactive). Besides, the GI50 in the assay on SW-620 was > 100 µM (inactive); with Malme-3M, > 27.2 µM (inactive); in the assay on MDA-N, > 78.5 µM (inactive); with HOP-62, > 84.1 µM (inactive); with HT-29, 26.9 µM (inactive); with ACHN, 48 µM (inactive). For the same molecule, the GI50 was > 100 µM (inactive) in the assay on OVCAR-4; > 100 µM (inactive) in the assay with OVCAR-5; > 100 µM (inactive) in the assay with HCC 2998; > 92 µM (inactive) in the assay on NCI-H226; 5.24 µM (inactive) in the assay on K562; 3.24 µM (inactive) with SR. Also, the GI50 is 48 µM (inactive) in the assay on MDA-MB-231 and 4.05 µM (inactive) with RPMI-8226.

As to `C=C(C)C12CC3CC/C(=N/O)C(C1)C3(N1CCOCC1)C/C2=N/O` (stereo not given), the GI50 in the assay on RXF 393, in the assay with SK-MEL-5, in the assay with SK-MEL-28, in the assay on UACC-62, in the assay on MDA-MB-435 and in the assay with A498 was > 100 µM (inactive) each time. Besides, the GI50 in the assay with SW-620, with Malme-3M, in the assay on MDA-N, in the assay with HOP-62, in the assay with HT-29 and in the assay on ACHN was > 100 µM (inactive) throughout. Besides, the GI50 with OVCAR-4, in the assay with OVCAR-5, in the assay with HCC 2998, in the assay with NCI-H226, in the assay with K562 and in the assay with SR was > 100 µM (inactive) throughout. For the same molecule, the GI50 in the assay with MDA-MB-231 and with RPMI-8226 was > 100 µM (inactive) in each case.

With `CSC(=N\c1ccccc1)/N=C(\SCc1ccccc1)N(C)C`, the GI50 in the assay with RXF 393 is 0.989 µM (active); in the assay on SK-MEL-5, 1.47 µM (inactive); in the assay with SK-MEL-28, 0.581 µM (active); in the assay on UACC-62, 0.555 µM (active); in the assay with MDA-MB-435 it was 1.23 µM (inactive); in the assay on A498, 1.65 µM (inactive). Further, the GI50 is 0.312 µM (active) with SW-620; 1.14 µM (inactive) with Malme-3M; 0.748 µM (active) in the assay with MDA-N; 1.7 µM (inactive) with HOP-62; 0.288 µM (active) in the assay with HT-29; 1 µM (active) in the assay with ACHN. The GI50 in the assay with OVCAR-4 was 0.889 µM (active); in the assay on OVCAR-5, 1.49 µM (inactive); in the assay with HCC 2998, 0.359 µM (active); in the assay on NCI-H226, 1.49 µM (inactive); with K562, 0.05 µM (active); with SR it was 0.16 µM (active). Besides, the GI50 in the assay on MDA-MB-231 is 1.17 µM (inactive); with RPMI-8226 it was 0.218 µM (active).

As for `Nc1c(O)c(C(=O)O)cc2ccccc12`, the GI50 in the assay with RXF 393 is > 100 µM (inactive); in the assay on SK-MEL-5 it was 14.7 µM (inactive); in the assay with SK-MEL-28, 37.2 µM (inactive); in the assay with UACC-62 it was 17 µM (inactive); with MDA-MB-435, 18.8 µM (inactive); with A498, > 100 µM (inactive). The GI50 was 18.3 µM (inactive) with SW-620; 15.3 µM (inactive) with Malme-3M; 17.9 µM (inactive) in the assay on MDA-N; > 100 µM (inactive) in the assay on HOP-62; 17 µM (inactive) in the assay with HT-29; 25.4 µM (inactive) in the assay on ACHN. The GI50 in the assay with OVCAR-4 is 22.9 µM (inactive); with OVCAR-5, 18.9 µM (inactive); with HCC 2998 it was 94 µM (inactive); in the assay with NCI-H226, 30.1 µM (inactive); in the assay with K562, 31.8 µM (inactive); in the assay on SR it was 39.4 µM (inactive). Further, the GI50 in the assay on MDA-MB-231 was 15.3 µM (inactive); in the assay with RPMI-8226, 33.3 µM (inactive).

Turning to `O=C(c1ccncc1)C1C(=O)c2ccccc2C1C1(O)c2ccccc2CC1C(O)c1ccncc1` (stereo not given), the GI50 is 39.6 µM (inactive) in the assay with RXF 393; 36 µM (inactive) in the assay with SK-MEL-5; 89.3 µM (inactive) in the assay on SK-MEL-28; 18.7 µM (inactive) with UACC-62; 16.9 µM (inactive) in the assay with MDA-MB-435; 49.1 µM (inactive) in the assay with A498. Further, the GI50 in the assay with SW-620 is 71.8 µM (inactive); in the assay on Malme-3M, 58.7 µM (inactive); with MDA-N, 13.3 µM (inactive); in the assay with HOP-62, 35.6 µM (inactive); with HT-29 it was 35.6 µM (inactive); with ACHN it was 62.1 µM (inactive). Besides, the GI50 with OVCAR-4 is 27.9 µM (inactive); in the assay on OVCAR-5, 65.6 µM (inactive); in the assay on HCC 2998, 57.3 µM (inactive); in the assay on NCI-H226 it was > 100 µM (inactive); with K562, 42 µM (inactive); with SR, 36.7 µM (inactive). The GI50 was 39.2 µM (inactive) with MDA-MB-231 and 19 µM (inactive) in the assay with RPMI-8226.

For `Cc1ccc2c(c1)OC1Nc3ccccc3C1=C2O` (stereo not given), the GI50 in the assay with RXF 393 was 20.5 µM (inactive); in the assay with SK-MEL-5, 16.4 µM (inactive); in the assay on SK-MEL-28 it was 53.7 µM (inactive); in the assay on UACC-62, 15.9 µM (inactive); in the assay with MDA-MB-435, 26.2 µM (inactive); with A498, 15.5 µM (inactive). Further, the GI50 in the assay with SW-620 is 29.2 µM (inactive); with Malme-3M it was 74.8 µM (inactive); in the assay with MDA-N it was 24.7 µM (inactive); in the assay with HOP-62 it was 27.4 µM (inactive); with HT-29 it was 30 µM (inactive); in the assay on ACHN it was 21.4 µM (inactive). Moreover, the GI50 in the assay with OVCAR-4 was 40.4 µM (inactive); with OVCAR-5 it was 32.6 µM (inactive); in the assay with HCC 2998, 14.2 µM (inactive); in the assay with NCI-H226, 20.7 µM (inactive); in the assay with K562, 25.9 µM (inactive); with SR, 31.2 µM (inactive). Besides, the GI50 with MDA-MB-231 was 20.6 µM (inactive); with RPMI-8226 it was 28 µM (inactive).

As to `COC1C(OC(C)=O)CC(=O)OC(C)C/C=C/C=C\C(O)C(C)CC(CC=O)C1OC1OC(C)C(OC2CC(C)(O)C(OC(=O)CC(C)C)C(C)O2)C(N(C)C)C1O` (stereo not given), the GI50 was 82 µM (inactive) with RXF 393; 46.9 µM (inactive) and 39.3 µM (inactive) with SK-MEL-5; > 100 µM (inactive) with SK-MEL-28; > 100 µM (inactive) in the assay on UACC-62; 51.1 µM (inactive) in the assay on MDA-MB-435; > 100 µM (inactive) and 70.3 µM (inactive) in the assay with A498. Also, the GI50 in the assay with SW-620 is > 100 µM (inactive); in the assay with Malme-3M, > 100 µM (inactive); with MDA-N it was 61.2 µM (inactive); in the assay on HOP-62, > 100 µM (inactive); in the assay with HT-29, > 100 µM (inactive) and 67.9 µM (inactive); in the assay on ACHN, > 100 µM (inactive). The GI50 was > 100 µM (inactive) and 68.5 µM (inactive) in the assay with OVCAR-4; > 100 µM (inactive) in the assay with OVCAR-5; > 100 µM (inactive) in the assay with HCC 2998; > 100 µM (inactive) in the assay on NCI-H226; 29.5 µM (inactive) and 51.2 µM (inactive) in the assay with K562; 24.6 µM (inactive) and 18.5 µM (inactive) in the assay on SR. Moreover, the GI50 is > 100 µM (inactive) in the assay with MDA-MB-231; > 100 µM (inactive) and 58.2 µM (inactive) with RPMI-8226.

`Cc1c2cc[n+](C)c(C)c2cc2c1[nH]c1ccccc12`: the GI50 is 38.7 µM (inactive) with RXF 393; 2.44 µM (inactive) in the assay on SK-MEL-5; 5.41 µM (inactive) with SK-MEL-28; 11.3 µM (inactive) in the assay on UACC-62; 16.2 µM (inactive) in the assay with MDA-MB-435; 70.5 µM (inactive) with A498. The GI50 in the assay on SW-620 is 8.09 µM (inactive); in the assay on Malme-3M, 2.72 µM (inactive); with MDA-N it was 27.5 µM (inactive); with HOP-62 it was 3.16 µM (inactive); in the assay on HT-29, 10.6 µM (inactive); in the assay on ACHN, 36.3 µM (inactive). In addition, the GI50 in the assay on OVCAR-4 was 5.43 µM (inactive); in the assay with OVCAR-5 it was 19.2 µM (inactive); in the assay with HCC 2998, 7.78 µM (inactive); in the assay on NCI-H226, 1.69 µM (inactive); with K562, 4.94 µM (inactive); in the assay with SR it was > 26.6 µM (inactive). For the same molecule, the GI50 in the assay with MDA-MB-231 was 2.51 µM (inactive); with RPMI-8226, 6.07 µM (inactive).
